Assay results: PMC8296985, “A Covalent Calmodulin Inhibitor as a Tool to Study Cellular Mechanisms of K-Ras-Driven Stemness” (Frontiers in Cell and Developmental Biology, 2021)
Like-named read-outs stand apart in the source and are kept apart here.

Experiments:
HeLa cells = assay: Centrosome number / multipolar phenotype in synchronized HeLa cells expressing mCherry-CaM; format: cell-based; conditions: 2 h; calmidazolium 20 μM, 1 50 μM, with MG132 10 μM
Method: To evaluate the effect of compounds on centrosome numbers during mitosis, HeLa cells were seeded in 6-well plates onto sterile coverslips and cotransfected with 0.5 μg of pmCherry-CaM and 1.5 μg pEGFP-Centrin1 plasmids using 4 μl of jetPRIME. Twenty-four hours after the transfection, cells were synchronized with 60 ng/ml of nocodazole for 16 h. After the removal of nocodazole, the cells were treated with the […] MG132 (10 μM) to block the cells in metaphase and either calmidazolium (20 μM), 1 (50 μM), or DMSO (0.5%) for 2 h. Cells were then fixed with 4% paraformaldehyde in PBS for 10 min at ambient temperature. After washing with PBS-Tween 0.05%, DNA was stained with a 1 μg/ml solution of DAPI diluted in PBS for 10 min. Coverslips were mounted on glass slides using Vectashield, and images were captured on a spinning disk confocal microscope. Images were analyzed with the ImageJ software, and the number of transfected mitotic cells with multipolar and normal bipolar phenotypes was counted (between 35 and 70 cells per test condition). The percentage multipolar vs. bipolar cells was computed to generate the plot using the Prism software.

K-RasG12V = K-RasG12V nanoclustering-BRET assay in HEK293-EBNA cells; format: cell-based; conditions: 24 h; calmidazolium 20 μM, OphA 2.5 μM, prostratin 10 μM, mevastatin 10 μM, benzazulenones 20 μM
Method: (§1) BRET assays were essentially performed as described by others ([Lavoie et al., 2013]; [Bery et al., 2018]). About 100,00–150,000 HEK293-EBNA ([Meissner et al., 2001]) cells were seeded per well of a 12-well plate in 1 ml of DMEM containing 10% FBS and 2 mM L-glutamine and were grown for 24 h. Next day, Rluc8-tagged donor and GFP2-tagged acceptor constructs were transfected into cells using a jetPRIME transfection reagent (cat. no. 114-75, Polyplus). Each well was transfected with about 1 μg of plasmid DNA using 3 μl of the jetPRIME reagent. For BRET donor saturation titration experiments, the concentration of donor plasmid (25 ng) was kept constant, and the concentration of acceptor plasmid was increased from 0 to 500 ng for RasG12V BRET pairs and 0–1,000 ng for K-Ras/CaM BRET pairs. The empty pcDNA3.1(-) plasmid was used to top-up the total DNA load per transfection. After 24 h of transfection, cells were treated with compounds or vehicle control (DMSO 0.2% v/v in a growth medium) at the specified concentration for 24 h or the stipulated time period in case of the time-course experiments. The cells from one well of a 12-well plate were collected, washed, and re-plated in PBS (cat. no. 14190-094, Gibco, Thermo Fisher Scientific) on flat bottom, white 96-well plates (cat. no. 236108, Nunc, Thermo Fisher Scientific) as four technical replicates containing 90 μl of cell suspension per well. Then fluorescence intensity followed by BRET readings were carried out on a Clariostar (BMG Labtech) plate reader at 25°C. The fluorescence intensity (RFU) of GFP2 was measured with excitation at 405 ± 10 nm and emission 515 ± 10 nm; it is proportional to the acceptor concentration [acceptor]. BRET readings were taken well by well by adding 10 μl of 100 μM coelenterazine 400a (cat. no. C-320, GoldBio), the Rluc8 substrate to each well (final concentration of 10 μM) using the injector present in the plate reader. Luminescence emission intensities were simultaneously recorded at 410 ± 40 nm (RLU, proportional to [donor]) and 515 ± 15 nm (BRET signal).
(§2) The raw BRET ratio was calculated as the BRET signal measured at 515 nm divided by the emission signal measured at 410 nm (RLU). The BRET ratio was obtained by subtracting the raw BRET ratio by a background BRET signal measured for cells expressing only the donor ([Bacart et al., 2008]) as indicated in the formula below:
(§3) For BRET donor saturation titration experiments, the BRET ratio was plotted against the [acceptor]/[donor] ratio. Technical repeat data points were averaged, and data points from all biological repeats were collected into one graph for subsequent fitting. The BRET ratio vs. relative expression data were fitted using a binding saturation equation in the Prism (GraphPad) software to obtain BRETmax and BRET50 using the equation y=BRETmax×x/BRET50+x , where x is the relative expression and y is the BRET ratio. BRETmax represents the maximum saturation BRET signal and depends on the structural parameters (distance, orientation) of the BRET complex. BRET50 corresponds to the ratio of the acceptor construct over the donor construct required to attain 50% of the maximum BRET signal and is a measure of the effective relative affinity between the interacting BRET pair ([Marullo and Bouvier, 2007]).
When applying the DSS analysis to nanoclustering-BRET data, we used mevastatin (10 μM) to obtain the asymptote parameter (a) for the maximal inhibition effect, as it prevents the prenylation of Ras proteins, their plasma membrane trafficking, and therefore nanoclustering. Otherwise, normalized BRET ratio data were converted to % inhibition and then subsequently uploaded onto the Breeze site (see text footnote 1).

K-RasG12V/CaM = biological target: T1, K-RasG12V/CaM (Homo sapiens, UniProt P0DP23); assay: Rluc8-K-RasG12V/GFP2-CaM interaction BRET in HEK293-EBNA cells; format: cell-based
T1 construct: expressed in transfected cells; host or cells: HEK293-EBNA
Method: as §1, §2, §3

CaM = biological target: CaM; design: method as in Manoharan et al., 2019; conditions: ref Manoharan et al., 2019; cited from earlier work
MDA-MB-231 = assay: 3D spheroid (tumorosphere) formation assay, low attachment, serum-free, alamarBlue; format: cell-based; conditions: for IC50: Homo sapiens; for KRAS/HRAS mutant cell line DSS3 ratio: MDA-MB-231 vs Hs 578T 3D spheroid formation, 0.6–40 μM, numbers above bars Fig. 1A,B
Method: (§4) 3D spheroid formation assays were performed in 96-well low-attachment, suspension culture plates (cat. no. 655185, Cellstar, Greiner Bio-One) under serum-free condition. About 1,000 (MDA-MB-231, NCI-H358, and MIA PaCa-2) or 2,500 (Hs 578T) cells per well were seeded in 50 μl of either an RPMI medium (cat. no. 52400-025, Gibco, Thermo Fisher Scientific) (MDA-MB-231, A375, and NCI-H358) or DMEM (cat. no. 41965-039, Gibco, Thermo Fisher Scientific) (Hs 578T and MIA PaCa-2), containing 0.5% MethoCult (cat. no. SF H4636, Stemcell technologies), 1x B27 (cat. no. 17504044, Gibco, Thermo Fisher Scientific), 25 ng/ml EGF (cat. no. E9644, Sigma-Aldrich), and 25 ng/ml FGF (cat. no. RP-8628, Thermo Fisher Scientific). Cells were cultured for 3 days and then treated with compounds or vehicle control (DMSO 0.1% v/v in growth medium) for another 3 days. The cells were supplemented with a fresh growth medium on the third day together with the drug treatment. For knockdown experiments, cells were seeded in 12-well plates and treated with either 50 nM scrambled siRNA (cat. no. 1022076, QIAGEN) or indicated concentrations of siRNAs. Next day, cells were collected by trypsinization and re-plated into 96-well plates for 3D spheroid suspension culture.
(§5) Spheroid formation efficiency was analyzed by an alamarBlue assay reagent (cat. no. DAL1100, Thermo Fisher Scientific). A 10% final volume of the alamarBlue reagent was added to each well of the plate and incubated for 4 h at 37°C. Then the fluorescence intensity was measured using the FLUOstar OPTIMA plate reader (BMG Labtech, Germany) with an excitation wavelength of 560 ± 5 nm and an emission wavelength of 590 ± 5 nm.
(§6) To quantitatively profile the drug sensitivity with a more robust parameter than the IC50 or EC50 values, the drug sensitivity score (DSS) analysis was employed. DSS values are essentially normalized area under the curve (AUC) measures of dose-response inhibition data ([Yadav et al., 2014]). Drug response data files (in Excel) ready for online analysis were prepared according to the example file obtained from the DSS pipeline website, called Breeze^1 ([Potdar et al., 2020]). Either raw fluorescence intensity measurements or normalized % inhibition data (for BRET assay analysis) were uploaded.
(§7) DSS3 was employed to emphasize drugs that obtain their response area over a relatively wide dose window, as compared to drugs that show increased response only at the higher end of the concentration range. After logistic fitting of the dose-response inhibition data, the area under the curve (AUC) was determined as the exact solution. A 10% minimal activity threshold (t) was set. The maximum (Cmax) and minimum (Cmin) concentrations were used for screening of the inhibitors, with Cmax = x2 and x1 concentration with minimal activity t.

Hs 578T = assay: as above; format: cell-based; conditions: Homo sapiens
Method: as §4, §5, §6, §7

calmodulin (CaM) = calmodulin (CaM) (Bos taurus, UniProt P62157); assay: Fluorescence polarization assay, displacement of F-PMCA peptide from CaM; conditions: for kinact/KI: read-out: k2/Ki second-order rate constant
Method: Compounds were threefold-diluted in an assay buffer (20 mM Tris Cl pH 7.5, 50 mM NaCl, 1 mM CaCl2, and 0.005% Tween 20), and a complex of 100 nM CaM and 10 nM F-PMCA peptide was added. […] Then the plate was incubated overnight at 4°C, and the next day, final readings were taken after a total of 24 h incubation. The fluorescence anisotropy was calculated and plotted against the logarithm of the compound concentration and fit to the log inhibitor vs. response–variable slope (four parameters) equation in Prism (GraphPad).
The potency and selectivity of a covalent inhibitor are governed by two parameters, namely, Ki, the dissociation constant of the initial non-covalent complex, and k2, the rate of the subsequent covalent bond-forming reaction as given in the chemical equation
E and I denote a protein target and its covalent inhibitor, respectively. E ⋅ I is the initial non-covalent complex, and E – I is the final covalent complex. […] This was repeated for several inhibitor concentrations. Then, kobs was plotted against the concentration of the inhibitor, and the data were fit to a hyperbolic equation kobs=k2×[I]/Ki+[I] to obtain Ki and k2. The ratio of k2/Ki represents the second-order rate constant of the reaction of the covalent inhibitor with the target.

[1] = biological target: T2, mutCaM (CaM with K75Q, K77Q, and K148Q mutations) (Homo sapiens, UniProt P0DP23, K76Q/K78Q); assay: Fluorescence polarization assay with F-CaMKII peptide and His-mutCaM; format: binding; conditions: 50 nM His-mutCaM, 5 nM F-CaMKII, compared to wt CaM
T2 construct: made in house; host or cells: E. coli BL21 Star (DE3)pLysS
Method: Our numbering of CaM follows ([Kong Au and Chow Leung, 1998]) with Ala being the first amino acid in human CaM, as the N-terminal methionine of CaM is removed in most organisms ([Halling et al., 2016]). […] At A600 of 0.6–0.8, the culture was induced with 0.5 mM of isopropyl β-D-thiogalactopyranoside and expressed for 16 h at 25°C. Cells were collected by centrifugation and incubated on ice for 30 min. The cell suspension was sonicated in a lysis buffer (20 mM HEPES, pH 7.6, 150 mM NaCl, 5 mM MgCl2, 0.5 mg/ml lysozyme, and DNase I). The lysates were clarified by centrifugation at 18,000 g for 30 min at 4°C. The soluble fractions were subjected to protein purification.

H-RasG12V = H-RasG12V nanoclustering-BRET assay in HEK293-EBNA cells; format: cell-based; conditions: FTI-277 1 μM, 24 h
Method: BRET assays were essentially performed as described by others ([Lavoie et al., 2013]; [Bery et al., 2018]). About 100,00–150,000 HEK293-EBNA ([Meissner et al., 2001]) cells were seeded per well of a 12-well plate in 1 ml of DMEM containing 10% FBS and 2 mM L-glutamine and were grown for 24 h. Next day, Rluc8-tagged donor and GFP2-tagged acceptor constructs were transfected into cells using a jetPRIME transfection reagent (cat. no. 114-75, Polyplus). Each well was transfected with about 1 μg of plasmid DNA using 3 μl of the jetPRIME reagent. […] Then fluorescence intensity followed by BRET readings were carried out on a Clariostar (BMG Labtech) plate reader at 25°C. The fluorescence intensity (RFU) of GFP2 was measured with excitation at 405 ± 10 nm and emission 515 ± 10 nm; it is proportional to the acceptor concentration [acceptor]. BRET readings were taken well by well by adding 10 μl of 100 μM coelenterazine 400a (cat. no. C-320, GoldBio), the Rluc8 substrate to each well (final concentration of 10 μM) using the injector present in the plate reader. Luminescence emission intensities were simultaneously recorded at 410 ± 40 nm (RLU, proportional to [donor]) and 515 ± 15 nm (BRET signal).
The raw BRET ratio was calculated as the BRET signal measured at 515 nm divided by the emission signal measured at 410 nm (RLU). […]

Chemical stability note = format: physicochemical
[2] = system: Ca^2+/CaM-dependent cyclic nucleotide phosphodiesterase; design: method as in Itoh and Hidaka, 1984; Zimmer and Hofmann, 1984; conditions: ref Itoh and Hidaka, 1984, Zimmer and Hofmann; cited from earlier work
α-hemoglobin = system: α-hemoglobin; design: method as in earlier work; conditions: formyl warhead, ref Center for Drug Evaluation and Research, 2017, Metcalf et al.; cited from earlier work
[3] = 72 h, MDA-MB-231 (K-RasG13D) 3D tumorosphere, 3 days treatment, read-out: IC50
[4] = MDA-MB-231 3D tumorosphere, log scale, read-out: logIC50 ± SD (converted)
[5] = 72 h, Hs 578T (H-RasG12D) 3D tumorosphere, 3 days treatment, read-out: IC50
[6] = Hs 578T 3D tumorosphere, log scale, read-out: logIC50 ± SD (converted)

Row | Compound | IC50 (MDA-MB-231; [3]) [µM] | IC50 (MDA-MB-231; [4]) [µM] | KRAS/HRAS mutant cell line DSS3 ratio (MDA-MB-231) | IC50 (Hs 578T; [5]) [µM] | IC50 (Hs 578T; [6]) [µM] | Kd (calmodulin (CaM)) [nM] | Ki (calmodulin (CaM)) [µM] | kinact/KI (calmodulin (CaM)) [M⁻¹ s⁻¹] | other results
1 | Clc1ccc(C(c2ccc(Cl)cc2)n2cc[n+](CC(OCc3ccc(Cl)cc3Cl)c3ccc(Cl)cc3Cl)c2)cc1 (stereo not drawn) [calmidazolium] |  |  |  |  |  |  |  |  | multipolar phenotype (multiple mCherry-CaM-positive centrosomes) (HeLa cells): increased fraction of multipolar cells; K-Ras selective reduction of nanoclustering-BRET (K-Ras vs H-Ras) (K-RasG12V): 1.5 fold; effect on Rluc8-K-RasG12V/GFP2-CaM BRET signal, single concentration (K-RasG12V/CaM; calmidazolium 20 μM, prostratin 20 μM, OphA 5 μM): significantly reduced the BRET signal; Kd (CaM): 13.5 nM
2 | Cc1c(N2CCCCC2)c2c(=O)c(C(F)(F)F)cc3ccc(C(C)C)cc1c32 [Compound 8] | 32.4 | 31.6 | 1.5 | 10.6 | 10.5 | 3100 | 39 | 2.5 | IC50 (K-RasG12V/CaM; 24-h exposure, A/D plasmid ratio 9/1, read-out: IC50 of Rluc8-K-RasG12V/GFP2-CaM BRET signal): 70 ± 11 µM; binding to mutCaM over time [1]: same binding affinity for wt CaM and mutCaM over time
3 | COC(=O)[C@H](CCSC)NC(=O)c1ccc(NC[C@@H](N)CS)cc1-c1ccccc1 [FTI-277] |  |  |  |  |  |  |  |  | H-Ras selective decrease of nanoclustering-BRET (H-RasG12V): 1.4 fold
4 | CC(C)c1ccc2cc(C(F)(F)F)c(=O)c3c(N4CCN(C)CC4)c(C=O)c(c1)c23 [Compound 3] | 35 | 34.7 | 6.0 | 25.8 | 25.1 | 250 | 11 | 11.7 | chemical stability (Chemical stability note): chemically not as stable; affinity for CaM relative to OphA (calmodulin (CaM); after 24-h incubation, higher affinity than OphA): 15 fold
5 | NCCCCCCNS(=O)(=O)c1cccc2c(Cl)cccc12 [Compound W-7] |  |  |  |  |  |  |  |  | concentration inhibiting CaM targets [2]: > 100 µM
6 | CC(C)n1nccc1-c1ncccc1COc1cccc(O)c1C=O [GBT440] |  |  |  |  |  |  |  |  | k2/Ki (α-hemoglobin): 15 × 10^3 M^–1 h^–1
